From US20090030086A1, “ANTIMICROBIAL AGENTS” (priority 2005, published 2009) come the findings set out here.

The term MIC denotes the lowest concentration found to suppress growth. As usually defined, the MBC is the lowest tested concentration that kills the bacteria rather than only halting them.

≈ marks a conversion by molar mass, not a printed value.

Assay [1] has as its system S. aureus ATCC 29213. Description: MIC assay. It counts as cell-based, Staphylococcus aureus. Particulars: Staphylococcus aureus, ATCC29213; S. aureus ATCC 29213; Mueller-Hinton broth pH 7.2, aerobic, 37° C., 24 hours; read-out: MIC. Summed up: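 Broth microdilution in Mueller-Hinton broth at pH 7.2, incubated aerobically at 37 °C for 24 h and run in duplicate with medium-only and solvent/inoculum controls. The MIC was the lowest concentration whose well stayed visibly clear.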

The test system of assay [2] is S. aureus ATCC 29213. Description: MBC assay. It counts as cell-based, Staphylococcus aureus. In a few lines:
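Organism grown aerobically on Mueller-Hinton agar/broth (pH 7.2) for 24 hours at 37° C. After the MIC step, samples plated on non-selective agar under those conditions; lowest concentration with no visible growth taken as the MBC.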

The subject of assay [3] is S. aureus ATCC 29213. The assay can be described thus: Disc diffusion assay (DDA). The settings on record: Staphylococcus aureus, ATCC29213; S. aureus ATCC 29213; unsupplemented agar; 200 μg per disc (thymoquinone 50 μg, 2,6-dimethoxy-p-benzoquinone 100 μg); read-out: DDA (diameter of zone of inhibition). It counts as cell-based, Staphylococcus aureus. Summed up: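 Paper discs loaded with test compound (usually 200 μg/disc), solvent evaporated ≥30 min, placed on inoculated Mueller-Hinton agar pH 7.2. Incubated aerobically at 37 °C for 24 h; inhibition zone diameter measured and area calculated as π(D/2)^2.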
On the technique in general: Agar diffusion results depend on both activity and mobility in agar.

The subject of assay [4] is S. aureus ATCC 29213. The assay can be described thus: Supplemented disc diffusion assay. It counts as cell-based, Staphylococcus aureus. Particulars: Staphylococcus aureus, ATCC29213, 24 h, S. aureus ATCC 29213, 200 μg per disc (thymoquinone 50 μg, 2,6-dimethoxy-p-benzoquinone 100 μg). In a few lines: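 Paper discs loaded with compound (200 μg per disc for most assays) placed on inoculated Mueller-Hinton agar, pH 7.2, supplemented with 5% v/v defibrinated horse blood, 1% v/v Tween 80 and 100 mM NaCl. Aerobic incubation at 37° C for 24 h; inhibition zone diameter measured.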

The test system of assay [5] is P. acnes NCTC 737. Description: MIC assay. Particulars: Cutibacterium acnes, NCTC737; P. acnes NCTC 737; Wilkins-Chalgren broth pH 6.0, anaerobic, 37° C., 72 hours; read-out: MIC. It counts as cell-based, Propionibacterium acnes. In a few lines:
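Broth microdilution in Wilkins-Chalgren Anaerobe broth pH 6.0, inoculated with freshly grown P. acnes NCTC 737 and incubated anaerobically at 37° C for 72 hours. MIC is the lowest compound concentration leaving the well visually clear, read on a light box. Run in duplicate with medium-only and solvent-plus-inoculum controls.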

For assay [6], the system named is P. acnes NCTC 737. Description: MBC assay. Format: cell-based, Propionibacterium acnes. The settings on record: P. acnes NCTC 737. Summed up:
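Cultures were kept on Wilkins-Chalgren Anaerobe agar and broth (pH 6.0), anaerobic, 37 °C, 72 h. The MBC, read as the minimum lethal concentration, came from sub-culturing post-MIC samples onto non-selective agar under those conditions and visually scoring growth.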

In assay [7] the test system is P. acnes NCTC 737. Description: Disc diffusion assay (DDA). Format: cell-based, Propionibacterium acnes. Particulars: Cutibacterium acnes, NCTC737; P. acnes NCTC 737; unsupplemented agar; 200 μg per disc (2,6-dimethoxy-p-benzoquinone 100 μg); read-out: DDA (diameter of zone of inhibition).
Assay [8] deals with P. acnes NCTC 737. Description: Supplemented disc diffusion assay. It counts as cell-based, Propionibacterium acnes. Particulars: Cutibacterium acnes, NCTC737, 72 h, P. acnes NCTC 737, 200 μg per disc (2,6-dimethoxy-p-benzoquinone 100 μg). Summed up: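 Propionibacterium discs loaded with 200 μg compound on Wilkins-Chalgren Anaerobe agar, pH 6.0, supplemented with Tween 80 (1% v/v) and NaCl (100 mM); anaerobic incubation at 37 °C for 72 h. Inhibition zone diameter measured by automated zone sizer.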

Setting [9] is: Tween 80 at 1% v/v, read-out: DDA + lipid.
The mark [10] stands for this setting: sodium chloride 100 mM, read-out: DDA + salt.

`O=[N+]([O-])c1c(O)cccc1O` [2-nitroresorcinol]: the minimum inhibitory concentration (MIC) in the assay on S. aureus ATCC 29213 [1] and in the assay on P. acnes NCTC 737 [5] was 125 µg/mL (≈ 806 µM) throughout. In addition, the MIC/MBC ratio in the assay on S. aureus ATCC 29213 [2] and in the assay with P. acnes NCTC 737 [6] was under 0.5 in each case. Also, the minimal bactericidal concentration (MBC) was over 250 µg/mL in the assay with S. aureus ATCC 29213 [2] (Staphylococcus aureus, ATCC29213, read-out: MBC) and over 250 µg/mL with P. acnes NCTC 737 [6] (Cutibacterium acnes, NCTC737, read-out: MBC). The zone of inhibition at 200 µg/disc in the assay with S. aureus ATCC 29213 [3] was determined as 10.5 mm; in the assay with S. aureus ATCC 29213 [4] (setting [9]) it was 0 mm; with S. aureus ATCC 29213 [4] (defibrinated horse blood 5% v/v, read-out: DDA + blood) it was 0 mm; with S. aureus ATCC 29213 [4] (setting [10]), 12.8 mm; in the assay with P. acnes NCTC 737 [7], 0 mm; in the assay on P. acnes NCTC 737 [8] (setting [9]), 0 mm. Further, the zone of inhibition at 200 µg/disc in the assay on P. acnes NCTC 737 [8] (setting [10]) worked out at 12.7 mm.
